Source: patent KR20180046249A, “리소스퍼믹 액시드를 포함하는 구강질환 예방 또는 치료용 조성물” (주식회사 엘지생활건강, priority 2016, dated 2018)

Columns and labels:
Type in all cases: cell-based
[1] = tested on: PGE2; experiment: PGE2 inhibition in LPS-stimulated macrophages (ELISA); settings: LPS 1 ㎍/ml
[2] = tested on: Streptococcus mutans; experiment: Paper disc antibacterial test, Streptococcus mutans; settings: 24-48 h incubation, untreated: no inhibition
[3] = tested on: Porphyromonas gingivalis; experiment: Paper disc antibacterial test, Porphyromonas gingivalis; settings: anaerobic, 24-48 h incubation, untreated: no inhibition

O=C(/C=C/c1ccc(O)c2c1[C@H](C(=O)O)[C@@H](c1ccc(O)c(O)c1)O2)O[C@H](Cc1ccc(O)c(O)c1)C(=O)O [리소스퍼믹 액시드, lithospermic acid]
PGE2 inhibition, concentration dependence (in words) [1]: 농도 의존적으로 PGE2를 억제하는 효과 | inhibition at 2 ppm ([1]; Macrophage, 2ppm, 24 h, compared with LPS-only group): ~50% | inhibition at 20 ppm ([1]; Macrophage, 20ppm, 24 h, compared with LPS-only group): ~70% | growth inhibition zone diameter ([2]; 10 mg/disc, 8 mm disc, 37, BHI): ~10.0 mm | zone of inhibition at 10 mg/disc ([2]; Streptococcus mutans, 8 mm disc, 37, BHI, read-out: growth inhibition zone diameter): 10.7 mm | growth inhibition zone diameter ([3]; 10 mg/disc, 8 mm disc, 37, TSA Hemin Menadione medium): ~10.0 mm | zone of inhibition at 10 mg/disc ([3]; Porphyromonas gingivalis, 8 mm disc, 37, TSA Hemin Menadione medium, read-out: growth inhibition zone diameter): 9.8 mm
